Values quoted from earlier work as cited in patent US20220054659A1, “PSMA-TARGETED PAMAM DENDRIMERS FOR SPECIFIC DELIVERY OF IMAGING, CONTRAST AND THERAPEUTIC AGENTS” (The Johns Hopkins University, priority 2018, published 2022).

Molecular target: PSMA (Homo sapiens, UniProt Q04609)
Sequence (Q04609 whole entry, species assumed): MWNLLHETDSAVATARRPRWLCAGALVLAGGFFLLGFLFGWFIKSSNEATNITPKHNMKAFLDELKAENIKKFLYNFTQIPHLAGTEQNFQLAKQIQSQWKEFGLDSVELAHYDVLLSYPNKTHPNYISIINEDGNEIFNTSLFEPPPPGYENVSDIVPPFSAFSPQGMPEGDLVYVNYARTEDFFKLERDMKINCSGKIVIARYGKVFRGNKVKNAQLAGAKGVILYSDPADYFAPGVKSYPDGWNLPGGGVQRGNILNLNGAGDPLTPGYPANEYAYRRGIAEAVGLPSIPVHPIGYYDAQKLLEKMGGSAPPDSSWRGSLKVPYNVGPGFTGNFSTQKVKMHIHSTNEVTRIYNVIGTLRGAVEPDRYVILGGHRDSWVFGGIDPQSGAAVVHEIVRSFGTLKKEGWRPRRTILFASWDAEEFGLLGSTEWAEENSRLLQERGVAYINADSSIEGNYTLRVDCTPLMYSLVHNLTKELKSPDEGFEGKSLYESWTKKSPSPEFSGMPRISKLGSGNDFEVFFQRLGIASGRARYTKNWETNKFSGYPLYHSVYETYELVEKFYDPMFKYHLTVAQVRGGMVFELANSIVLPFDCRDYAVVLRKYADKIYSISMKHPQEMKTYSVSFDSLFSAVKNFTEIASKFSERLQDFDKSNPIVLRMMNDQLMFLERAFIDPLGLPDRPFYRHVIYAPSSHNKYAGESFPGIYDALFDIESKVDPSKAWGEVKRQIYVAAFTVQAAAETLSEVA

affinity to PSMA: picomolar
Structure (SMILES): NCCCC[C@H](NC(=O)N[C@@H](CCC(=O)O)C(=O)O)C(=O)O [Lys-Glu-urea]
